{"source": "PubChem BioAssay AID1963825", "about": "(Molecular Pharmacology Branch, DTP, NCI, 2024)", "test": "Anticancer human tumor 997537-175-T-J1-PDC patient-derived colon adenocarcinoma cell line growth inhibition [POLQ]", "settings": "997537-175-T-J1-PDC complex spheroid viability, combination with POLQ inhibitors; for viability, T/C: stronger effect = lower value", "method": "Multicellular complex tumor spheroid response to Polymerase (POL) inhibitors (novobiocin, ART-558, RP6685) in combination with a variety of drugs and investigational agents in selected tumor cell lines\nThe POL inhibitors (novobiocin, ART-558, and RP6685) were evaluated both individually and in combination with standard of care and investigational anticancer small molecules within a complex spheroid model of solid tumors. . Complex spheroids include a stromal component modeled by human endothelial cells (HUVEC) and fibroblasts modeled by human mesenchymal stem cells (MSCs). The concentration ranges selected for each drug and investigational agent were based upon clinically achievable concentrations if the clinical Cmax of the agent was known.\nCompounds. The drugs and investigational agents: novobiocin (NSC847541), ART-558 (NSC835418), RP-6685 (NSC848927), peposertib (NSC802822), ceralasertib (NSC780249), elimusertib (NSC800525), camonsertib (NSC841442), AZD-1390 (NSC803789), olaparib (NSC753686), talazoparib (NSC767125), rucaparib (NSC756644), sotorasib (NSC818433), MRTX-1133 (NSC836407), SN-38 (NSC673596), topotecan (NSC609699), epotoside (NSC141540), doxorubicin (NSC123127), gemcitabine (NSC613327), 5-fluorouracil (NSC19893), paclitaxel (NSC125973), vemurafenib (NSC761431), MSA-2 (NSC828583), SN-011 (NSC837082), adavosertib (NSC754352), prexasertib (NSC758257), carboplatin (NSC241240) and oxaliplatin (NSC266046), were obtained from the National Cancer Institute (NCI) Developmental Therapeutics Program Chemical Repository (21). The FDA-approved anticancer drug set is available from the Developmental Therapeutics Program at https://dtp.cancer.gov/organization/dscb/obtaining/. […] The stock solutions were prepared in dimethyl sulfoxide (DMSO, Sigma-Aldrich, St. Louis, MO, cat. D2650), except for the platinum compounds which were prepared in saline (Quality Biological, Gaithersburg, MD, cat. 114-055-101), at 800-fold the tested concentration and stored at -70 degrees C prior to their use. All drugs and investigational agents were tested over a range starting from a high concentration at or near the clinical Cmax and decreasing in half-log increments. If the clinical Cmax for an agent had not been determined, the highest concentration tested was 10 microM, except for SN-38, which was tested at a high concentration of 1 microM.\nCell Culture. All cells were maintained in an incubator at 37 degrees C and 5% CO2 with 95% humidity. The PDC lines were cultured according to standard operating procedures established by the NCI PDMR (https://pdmr.cancer.gov). Table 3 of the manuscript, lists the cell lines along with the number of the three cell types plated to form the mct-spheroids and media for tumor cell growth. After thawing, all PDC lines, except 997537-175-T-J1-PDC and 415267-285-R-J2-PDC, were cultured in Matrigel-coated flasks prepared with a working solution of 1X Ham's F-12 nutrient mix, without supplementation (Thermo Fisher Scientific, cat. 11765054), 100 U/mL penicillin-streptomycin (Thermo Fisher Scientific, cat. 15140122), and 2.5% Matrigel (Corning Inc., Corning, NY, cat. 354248) for the first three passages. The two PDC lines 997537-175-T-J1-PDC and 415267-285-R-J2-PDC were cultured on uncoated flasks. The 857933-349-R-J2-PDC line was cultured in 6C/Colon 1B media containing advanced DMEM/F-12 (Thermo Fisher Scientific, cat. 12634028), 10 mM HEPES (Thermo Fisher Scientific, cat. 15630080), 1X GlutaMAX supplement (Thermo Fisher Scientific, cat. 35050061), 0.1 mg/mL primocin (InvivoGen, San Diego, CA, cat. ant-pm-2), 10% defined fetal bovine serum, heat inactivated (HyClone Laboratories Inc., Logan, UT, cat. SH30070.03HI), 50% L-WRN conditioned media (ATCC, cat. CRL-3276), 1.25 mM N-Acetyl-L-cysteine (Sigma-Aldrich, cat. A9165), 10 mM nicotinamide (Sigma-Aldrich, cat. N0636), 1X B-27 supplement (Thermo Fisher Scientific, cat. 17504044), 1X N-2 supplement (Thermo Fisher Scientific, cat. […]", "note": "Several values for one entry are separate records, joined by “and”; a condition that tells them apart may be missing. Equal values may be shown once."}
{"molecule": "CCc1cc2c(N3CCc4c(cc(Cn5ccnc5)cc4-c4cn(C)nc4C(F)(F)F)C3=O)ccnc2c(OC)n1", "note": "+ Nc1ccc(C#CCN(C(=O)Cc2ncc(C(F)(F)F)cc2C(F)(F)F)c2ccc(F)cc2)nn1;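 also: luminescence signal used as a surrogate for viable cells; spheroids exposed to drugs for seven days before readout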", "values": [{"measurement": "IC50", "setting": "curve of first compound, second compound 0.0316 µM", "value": "> 10", "unit": "µM"}, {"measurement": "IC50", "setting": "curve of first compound, second compound 0.1 µM", "value": "> 10", "unit": "µM"}, {"measurement": "IC50", "setting": "curve of first compound, second compound 0.316 µM", "value": "> 10", "unit": "µM"}, {"measurement": "IC50", "setting": "curve of first compound, second compound 1 µM", "value": "> 10", "unit": "µM"}, {"measurement": "IC50", "setting": "curve of first compound, second compound 3.16 µM", "value": "> 10", "unit": "µM"}, {"measurement": "IC50", "setting": "curve of first compound, second compound 10 µM", "value": "> 10", "unit": "µM"}, {"measurement": "viability, T/C", "setting": "second compound 0.0316 µM, first compound 0.0316 µM", "value": 89.5, "unit": "%"}, {"measurement": "viability, T/C", "setting": "second compound 0.0316 µM, first compound 0.1 µM", "value": 110, "unit": "%"}, {"measurement": "viability, T/C", "setting": "second compound 0.0316 µM, first compound 0.316 µM", "value": 94.7, "unit": "%"}, {"measurement": "viability, T/C", "setting": "second compound 0.0316 µM, first compound 1 µM", "value": 97.2, "unit": "%"}, {"measurement": "viability, T/C", "setting": "second compound 0.0316 µM, first compound 3.16 µM", "value": 85.9, "unit": "%"}, {"measurement": "viability, T/C", "setting": "second compound 0.0316 µM, first compound 10 µM", "value": 57.8, "unit": "%"}, {"measurement": "viability, T/C", "setting": "second compound 0.1 µM, first compound 0.0316 µM", "value": 94.6, "unit": "%"}, {"measurement": "viability, T/C", "setting": "second compound 0.1 µM, first compound 0.1 µM", "value": 98.2, "unit": "%"}, {"measurement": "viability, T/C", "setting": "second compound 0.1 µM, first compound 0.316 µM", "value": 87, "unit": "%"}, {"measurement": "viability, T/C", "setting": "second compound 0.1 µM, first compound 1 µM", "value": 114, "unit": "%"}, {"measurement": "viability, T/C", "setting": "second compound 0.1 µM, first compound 3.16 µM", "value": 82.1, "unit": "%"}, {"measurement": "viability, T/C", "setting": "second compound 0.1 µM, first compound 10 µM", "value": 63.2, "unit": "%"}, {"measurement": "viability, T/C", "setting": "second compound 0.316 µM, first compound 0.0316 µM", "value": 92.4, "unit": "%"}, {"measurement": "viability, T/C", "setting": "second compound 0.316 µM, first compound 0.1 µM", "value": 93.5, "unit": "%"}, {"measurement": "viability, T/C", "setting": "second compound 0.316 µM, first compound 0.316 µM", "value": 83.5, "unit": "%"}, {"measurement": "viability, T/C", "setting": "second compound 0.316 µM, first compound 1 µM", "value": 94.6, "unit": "%"}, {"measurement": "viability, T/C", "setting": "second compound 0.316 µM, first compound 3.16 µM", "value": 68.4, "unit": "%"}, {"measurement": "viability, T/C", "setting": "second compound 0.316 µM, first compound 10 µM", "value": 61.8, "unit": "%"}, {"measurement": "viability, T/C", "setting": "second compound 1 µM, first compound 0.0316 µM", "value": 103, "unit": "%"}, {"measurement": "viability, T/C", "setting": "second compound 1 µM, first compound 0.1 µM", "value": 104, "unit": "%"}, {"measurement": "viability, T/C", "setting": "second compound 1 µM, first compound 0.316 µM", "value": 97.3, "unit": "%"}, {"measurement": "viability, T/C", "setting": "second compound 1 µM, first compound 1 µM", "value": 77, "unit": "%"}, {"measurement": "viability, T/C", "setting": "second compound 1 µM, first compound 3.16 µM", "value": 77.4, "unit": "%"}, {"measurement": "viability, T/C", "setting": "second compound 1 µM, first compound 10 µM", "value": 86.9, "unit": "%"}, {"measurement": "viability, T/C", "setting": "second compound 3.16 µM, first compound 0.0316 µM", "value": 97, "unit": "%"}, {"measurement": "viability, T/C", "setting": "second compound 3.16 µM, first compound 0.1 µM", "value": 76.5, "unit": "%"}, {"measurement": "viability, T/C", "setting": "second compound 3.16 µM, first compound 0.316 µM", "value": 90.5, "unit": "%"}, {"measurement": "viability, T/C", "setting": "second compound 3.16 µM, first compound 1 µM", "value": 91.2, "unit": "%"}, {"measurement": "viability, T/C", "setting": "second compound 3.16 µM, first compound 3.16 µM", "value": 71.6, "unit": "%"}, {"measurement": "viability, T/C", "setting": "second compound 3.16 µM, first compound 10 µM", "value": 64.1, "unit": "%"}, {"measurement": "viability, T/C", "setting": "second compound 10 µM, first compound 0.0316 µM", "value": 97.4, "unit": "%"}, {"measurement": "viability, T/C", "setting": "second compound 10 µM, first compound 0.1 µM", "value": 96.2, "unit": "%"}, {"measurement": "viability, T/C", "setting": "second compound 10 µM, first compound 0.316 µM", "value": 101, "unit": "%"}, {"measurement": "viability, T/C", "setting": "second compound 10 µM, first compound 1 µM", "value": 91, "unit": "%"}, {"measurement": "viability, T/C", "setting": "second compound 10 µM, first compound 3.16 µM", "value": 79.5, "unit": "%"}, {"measurement": "viability, T/C", "setting": "second compound 10 µM, first compound 10 µM", "value": 75.5, "unit": "%"}]}
{"molecule": "CCCS(=O)(=O)Nc1ccc(F)c(C(=O)c2c[nH]c3ncc(-c4ccc(Cl)cc4)cc23)c1F", "values": [{"measurement": "viability, T/C", "setting": "compound 0.0316 µM", "value": "97.4% and 90.7% and 82.4%"}, {"measurement": "viability, T/C", "setting": "compound 0.1 µM", "value": "82.1% and 86.5% and 97.7%"}, {"measurement": "viability, T/C", "setting": "compound 0.316 µM", "value": "88.1% and 82.6% and 89.7%"}, {"measurement": "viability, T/C", "setting": "compound 1 µM", "value": "86.5% and 84.5% and 82.5%"}, {"measurement": "viability, T/C", "setting": "compound 3.16 µM", "value": "65.1% and 72.9% and 76%"}, {"measurement": "viability, T/C", "setting": "compound 10 µM", "value": "26.5% and 42% and 22.9%"}, {"measurement": "IC50", "setting": "curve of compound", "value": "4.97 µM and 7.51 µM and 5.5 µM"}]}
{"molecule": "O=C(c1cc(Cc2n[nH]c(=O)c3ccccc23)ccc1F)N1CCN(C(=O)C2CC2)CC1", "values": [{"measurement": "viability, T/C", "setting": "compound 0.0316 µM", "value": "98.8% and 31.4% and 107%"}, {"measurement": "viability, T/C", "setting": "compound 0.1 µM", "value": "107% and 36% and 112%"}, {"measurement": "viability, T/C", "setting": "compound 0.316 µM", "value": "99.5% and 36% and 104%"}, {"measurement": "viability, T/C", "setting": "compound 1 µM", "value": "87.5% and 38% and 104%"}, {"measurement": "viability, T/C", "setting": "compound 3.16 µM", "value": "121% and 40.2% and 95.3%"}, {"measurement": "viability, T/C", "setting": "compound 10 µM", "value": "89.1% and 32.3% and 94.1%"}]}
{"molecule": "Nc1ccc(C#CCN(C(=O)Cc2ncc(C(F)(F)F)cc2C(F)(F)F)c2ccc(F)cc2)nn1", "values": [{"measurement": "viability, T/C", "setting": "compound 0.0316 µM", "value": "99.2% [middle of 13 runs]"}, {"measurement": "viability, T/C", "setting": "compound 0.1 µM", "value": "97.2% [middle of 13 runs]"}, {"measurement": "viability, T/C", "setting": "compound 0.316 µM", "value": "99.4% [middle of 13 runs]"}, {"measurement": "viability, T/C", "setting": "compound 3.16 µM", "value": "98.6% [middle of 13 runs]"}, {"measurement": "viability, T/C", "setting": "compound 10 µM", "value": "101% [middle of 13 runs]"}, {"measurement": "IC50", "setting": "compound alone, run of 12/05/2023", "value": "> 10", "unit": "µM"}]}
{"molecule": "CNCc1ccc(-c2[nH]c3cc(F)cc4c3c2CCNC4=O)cc1", "values": [{"measurement": "viability, T/C", "setting": "compound 0.0316 µM", "value": "90.4% and 94.4% and 96.8%"}, {"measurement": "viability, T/C", "setting": "compound 0.1 µM", "value": "96.6% and 93.5% and 90.8%"}, {"measurement": "viability, T/C", "setting": "compound 0.316 µM", "value": "91% and 108% and 106%"}, {"measurement": "viability, T/C", "setting": "compound 1 µM", "value": "98.3% and 93.2% and 88.9%"}, {"measurement": "viability, T/C", "setting": "compound 3.16 µM", "value": "100% and 103% and 99.9%"}, {"measurement": "viability, T/C", "setting": "compound 10 µM", "value": "95% and 98.8% and 89.1%"}, {"measurement": "IC50", "setting": "curve of compound", "value": "> 10", "unit": "µM"}]}
